Data from patent US20110218199A1, “PYRIDONEAMIDE DERIVATIVES, THEIR MANUFACTURE AND USE AS PHARMACEUTICAL AGENTS” (priority 2007, published 2011).

Tested on: HCT 116 cells
Test: CellTiter-Glo assay in HCT 116 cells (antiproliferative activity)
Type: cell-based
Details: Homo sapiens, HCT-116, 120 h, CellTiter-Glo cell viability, HCT 116 human colon carcinoma, 5 days (120 h) incubation
From the text: Antiproliferative Activity:
CellTiter-Glo™ Assay in HCT 116 Cells:
The CellTiter-Glo™ Luminescent Cell Viability Assay (Promega) is a homogeneous method of determining the number of viable cells in culture based on quantitation of the ATP present, which signals the presence of metabolically active cells.
HCT 116 cells (human colon carcinoma, ATCC-No. CCl-247) were cultivated in RPMI 1640 medium with GlutaMAX• I (Invitrogen, Cat-No. 61870-010), 5% Fetal Calf Serum (FCS, Sigma Cat-No. F4135 (FBS)); 100 Units/ml penicillin/100 μg/ml streptomycin (=Pen/Strep from Invitrogen Cat. No. 15140). For the assay the cells were seeded in 384 well plates, 1000 cells per well, in the same medium. The next day the test compounds were added in various concentrations ranging from 30 μM to 0.0015 μM (10 concentrations, 1:3 diluted). After 5 days the CellTiter-Glo™ assay was done according to the instructions of the manufacturer (CellTiter-Glo™ Luminescent Cell Viability Assay, from Promega). In brief: the cell-plate was equilibrated to room temperature for approximately 30 minutes and than the CellTiter-Glo™ reagent was added. The contents were carefully mixed for 15 minutes to induce cell lysis. After 45 minutes the luminescent signal was measured in Victor 2, (scanning multiwell spectrophotometer, Wallac).
1st. Day: • Medium: RPMI 1640 with GlutaMAX™ I (Invitrogen, Cat-Nr. 61870), 5% FCS (Sigma Cat.-No. F4135), Pen/Strep (Invitrogen, Cat No. 15140). • HCT116 (ATCC-No. CC1-247): 1000 cells in 60 μl per well of 384 well plate (Greiner 781098, μClear-plate white) • After seeding incubate plates 24 h at 37° C., 5% CO2
2nd. Day: Induction (Treatment with Compounds, 10 Concentrations):
In order to achieve a final concentration of 30 μM as highest concentration 3.5 μl of 10 mM compound stock solution were added directly to 163 μl media. Then step e) of the dilution procedure described below, was followed.
In order to achieve the second highest to the lowest concentrations, a serial dilution with dilution steps of 1:3 was followed according to the procedure (a-e) as described here below: • a) for the second highest concentration add 10 μl of 10 mM stock solution of compound to 20 μl dimethylsulfoxide (DMSO) • b) dilute 8×1:3 (always 10 μl to 20 μl DMSO) in this DMSO dilution row (results in 9 wells with concentrations from 3333.3 μM to 0.51 μM) • c) dilute each concentration 1: 47.6 (3.5 μl compound dilution to 163 μl media) • d) add 10 μl of every concentration to 60 μl media in the cell plate resulting in final concentration of DMSO: 0.3% in every well and resulting in 10 final concentration of compounds ranging from 30 μM to 0.0015 μM. • Each compound is tested in triplicate. • Incubate 120 h (5 days) at 37° C., 5% CO2 […]
Add 30 μl CellTiter-Glo™ Reagent (prepared from CellTiter-Glo™ Buffer and CellTiter-Glo™ Substrate (lyophilized) purchased from Promega) per well, shake 15 minutes at room temperature incubate further 45 minutes at room temperature without shaking
Victor 2 scanning multiwell spectrophotometer (Wallac), Luminescence mode (0.5 sec/read, 477 nm) Determine IC50 using a non-linear curve fit (XLfit software (ID Business Solution Ltd., Guilford, Surrey, UK))

| IC50 [µM] | SMILES |
| --- | --- |
| 0.5 to 15 | O=C(Nc1ccc(N2CCOCC2)cc1)c1c(NCc2ccccn2)cc[nH]c1=O [Example 6r, 2-Oxo-4-[(pyridin-2-ylmethyl)-amino]-1,2-dihydro-pyridine-3-carboxylic acid (4-morpholin-4-yl-phenyl)-amide] |
| 0.5 to 15 | CC(CNc1cc[nH]c(=O)c1C(=O)Nc1cccc(CN2CCCC2)c1)c1ccccc1 (stereo not drawn) [Example 6v, 2-Oxo-4-(2-phenyl-propylamino)-1,2-dihydro-pyridine-3-carboxylic acid (3-pyrrolidin-1-ylmethyl-phenyl)-amide] |
| 0.5 to 15 | CSc1cccc(NC(=O)c2c(NCc3ccccn3)cc[nH]c2=O)c1 [Example 6s, 2-Oxo-4-[(pyridin-2-ylmethyl)-amino]-1,2-dihydro-pyridine-3-carboxylic acid (3-methylsulfanyl-phenyl)-amide] |
| 1.25 | CC(=O)N1CCN(c2ccc(NC(=O)c3c(NC[C@@H](O)c4cccc(Cl)c4)cc[nH]c3=O)cc2C(F)(F)F)CC1 [Example 4d, 4-[(S)-2-(3-Chloro-phenyl)-2-hydroxy-ethylamino]-2-oxo-1,2-dihydro-pyridine-3-carboxylic acid [4-(4-acetyl-piperazin-1-yl)-3-trifluoromethyl-phenyl]-amide] |
| 0.5 to 15 | CN1CCN(c2ccc(NC(=O)c3c(NCCc4cccc(Cl)c4)cc[nH]c3=O)cc2)CC1 [Example 4b, 4-[2-(3-Chloro-phenyl)-ethylamino]-2-oxo-1,2-dihydro-pyridine-3-carboxylic acid [4-(4-methyl-piperazin-1-yl)-phenyl]-amide] |
| 0.5 to 15 | CN1CCN(c2ccc(NC(=O)c3c(NC[C@@H](O)c4ccccc4)cc[nH]c3=O)cc2F)CC1 [Example 4c, 4-[(S)-2-Hydroxy-2-phenyl-ethylamino]-2-oxo-1,2-dihydro-pyridine-3-carboxylic acid [3-fluoro-4-(4-methyl-piperazin-1-yl)-phenyl]-amide] |
| 0.5 to 15 | O=C(Nc1ccc(N2CCCC2)c(C(F)(F)F)c1)c1c(NCc2ccccn2)cc[nH]c1=O [Example 2j, 2-Oxo-4-[(pyridin-2-ylmethyl)-amino]-1,2-dihydro-pyridine-3-carboxylic acid (4-pyrrolidin-1-yl-3-trifluoromethyl-phenyl)-amide] |
| 0.5 to 15 | COc1ccc(NC(=O)c2c(NCCc3ccccc3)cc[nH]c2=O)cc1N1CCN(C)CC1 [Example 6i, 2-Oxo-4-phenethylamino-1,2-dihydro-pyridine-3-carboxylic acid [4-methoxy-3-(4-methyl-piperazin-1-yl)-phenyl]-amide] |
| 0.5 to 15 | O=C(Nc1cccc(N2CCOCC2)c1)c1c(NC[C@@H](O)c2cccc(Cl)c2)cc[nH]c1=O [Example 4m, 4-[(S)-2-(3-Chloro-phenyl)-2-hydroxy-ethylamino]-2-oxo-1,2-dihydro-pyridine-3-carboxylic acid (3-morpholin-4-yl-phenyl)-amide] |
| 0.5 to 15 | CN(C)c1cccc(NC(=O)c2c(NC[C@@H](O)c3cccc(Cl)c3)cc[nH]c2=O)c1 [Example 2w, 4-[(S)-2-(3-Chloro-phenyl)-2-hydroxy-ethylamino]-2-oxo-1,2-dihydro-pyridine-3-carboxylic acid (3-dimethylamino-phenyl)-amide] |
| 0.5 to 15 | COc1ccccc1CCNc1cc[nH]c(=O)c1C(=O)Nc1cccc(N2CCN(C)CC2)c1 [Example 4ab, 4-[2-(2-Methoxy-phenyl)-ethylamino]-2-oxo-1,2-dihydro-pyridine-3-carboxylic acid [3-(4-methyl-piperazin-1-yl)-phenyl]-amide] |
| 0.5 to 15 | COc1cccc(CCNc2cc[nH]c(=O)c2C(=O)Nc2cccc(N3CCN(C)CC3)c2)c1 [Example 4y, 4-[2-(3-Methoxy-phenyl)-ethylamino]-2-oxo-1,2-dihydro-pyridine-3-carboxylic acid [3-(4-methyl-piperazin-1-yl)-phenyl]-amide] |
